The compounds below were run against human GYS1 (glycogen synthase) (Homo sapiens (Human), UniProt P13807) (assay: Measurement of glycogen synthase activity (coupled pyruvate kinase/lactate dehydrogenase assay, absorbance at 340 nm)). Conditions: concentration inducing relative activity of 50% (100% = Ex. 1 of WO/2011/058154 at 10 μM); incubation at 30° C. for 25 minutes (Examples 1 to 10).
Type: biochemical
Procedure: A human GYS1 expression plasmid (pCDNA3.1(+)-hGYS1) was constructed by the following method. Using a human skeletal muscle cDNA of Human MTC Panel I (Takara Bio Inc., 636742) as a template, a human GYS1 gene was amplified by a PCR method using cloning primers (Forward Primer: ATGCCTTTAAACCGCAC (SEQ ID NO: 1), Reverse Primer: TTAGTTACGCTCCTCGC (SEQ ID NO: 2)). Using the amplified human GYS1 sequence as a template, a restriction enzyme sequence was added by a PCR method using sub-cloning primers (Forward Primer: […] (SEQ ID NO: 3), Reverse Primer: […] (SEQ ID NO: 4)). Then, the human GYS1 gene was introduced between a Xho I site and a Xba I site of pCDNA3.1(+) (Invitrogen Corporation, V790-20).
Glycogen synthase was prepared by the following method according to the published article (THE JOURNAL OF BIOLOGICAL CHEMISTRY Vol. 269, No. 41, 25534-25542, 1994). Human kidney-derived HEK293T cells were seeded in a dish (Thermo Fisher Scientific Inc., 168381) using a 10% FBS-containing DMEM (Nacalai Tesque, Inc., 0845874) medium, and cultured overnight. Then, using Lipofectamine LTX (Invitrogen Corporation, 15338-100), the human GYS1 expression vector was transfected according to the attached manual. After culturing under conditions of 37° C. and 5% CO2 for 2 days, the resultant was dissolved in a lysis buffer (50 mM Tris-HCl (pH 8.0), 10 mM EDTA, 2 mM EGTA, 100 mM NaF, 1 mM PMSF, 1 mM DTT, 1× Complete (Roche Diagnostics K. K., 1873580)), homogenized, and then centrifuged at 16000×g at 4° C. for 15 minutes. To the precipitated fraction, a lysis buffer was added. Re-dissolved fractions were used as glycogen synthase for evaluation.
The glycogen synthase activity was measured by the following method. To a polystyrene 96-well plate, a solution containing 30 mM glycylglycine (pH 7.3), 40 mM KCl, 20 mM MgCl2, 9.2% DMSO containing one of the test compounds at various concentrations, and 10 mM glucose-6-phosphate (Sigma-Aldrich Corporation, G7879) was added by 12 μL/well.
Next, a substrate solution containing 30 mM glycylglycine (pH 7.3), 4.3 mg/mL of glycogen (Sigma-Aldrich Corporation, G8876), 21.6 mM UDP-glucose (Sigma-Aldrich Corporation, U4625), 21.6 mM phosphoenolpyruvic acid (Sigma-Aldrich Corporation, P0564), and 4.05 mM NADH (Sigma-Aldrich Corporation, N8129) was added by 18 μL/well.
Further, an enzyme solution containing 50 mM Tris-HCl (pH 8.0), 27 mM DTT (Nacalai Tesque, Inc., 14128-04), 0.2 mg/mL of bovine serum albumin, 0.17 mg/mL of the glycogen synthase, 1.5 μL of a pyruvate kinase/lactate dehydrogenase solution (Sigma-Aldrich Corporation, P0294) was added by 18 μL/well to prepare a reaction solution. After the reaction solution was incubated (at 30° C. for 25 minutes for Examples 1 to 10, at 37° C. for 20 minutes for Examples 11 to 75), the absorbance at 340 nm was measured using Benchmark Plus (Bio-Rad Laboratories, Inc.).
The activities of the test compounds were calculated by the following method. The change in the absorbance (ΔA340) was calculated by subtracting the absorbance at 340 nm of the reaction solution containing the compound and DMSO from the absorbance at 340 nm of a reaction solution not containing the compound but containing only DMSO. The ΔA340 of the reaction solution containing the compound of Example 1 in WO/2011/058154 at the final concentration of 10 μM was taken as 100% to calculate the relative activity (%) of the test compounds at various concentrations. EC50 representing the concentration of the compound which induces an increase in the relative activity to 50% was calculated using XLfit (idbs).

Chain of human GYS1 (glycogen synthase) (P13807 whole entry): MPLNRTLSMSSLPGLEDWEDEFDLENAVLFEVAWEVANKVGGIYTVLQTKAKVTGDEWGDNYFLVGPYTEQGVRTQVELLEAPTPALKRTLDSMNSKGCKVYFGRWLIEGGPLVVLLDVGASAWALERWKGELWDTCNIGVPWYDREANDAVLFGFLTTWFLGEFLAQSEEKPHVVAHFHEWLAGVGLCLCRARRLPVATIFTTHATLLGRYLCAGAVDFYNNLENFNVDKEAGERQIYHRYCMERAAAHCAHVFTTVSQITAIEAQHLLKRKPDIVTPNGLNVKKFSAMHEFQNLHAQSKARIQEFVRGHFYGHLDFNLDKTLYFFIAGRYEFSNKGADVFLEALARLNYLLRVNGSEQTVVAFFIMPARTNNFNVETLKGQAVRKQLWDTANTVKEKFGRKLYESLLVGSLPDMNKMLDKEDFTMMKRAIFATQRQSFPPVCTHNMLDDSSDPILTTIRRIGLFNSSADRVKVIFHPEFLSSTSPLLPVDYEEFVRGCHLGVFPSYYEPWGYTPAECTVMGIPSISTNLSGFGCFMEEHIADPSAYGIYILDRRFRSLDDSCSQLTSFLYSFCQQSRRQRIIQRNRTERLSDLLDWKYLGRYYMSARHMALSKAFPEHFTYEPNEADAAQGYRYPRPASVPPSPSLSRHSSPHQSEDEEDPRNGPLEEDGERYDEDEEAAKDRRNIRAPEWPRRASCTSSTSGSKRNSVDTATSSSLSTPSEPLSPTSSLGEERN

SMILES	EC50 [nM]
O=C(O)[C@@H]1CCCN1C(=O)c1cccc(COc2ccc(-c3ccc4occc4c3)cc2)c1 [compound of Ex. 6]	330
O=C(O)[C@@H]1CCCN1C(=O)c1cccc(COc2ccc(-c3ccc(F)c4ccoc34)cc2)c1 [compound of Ex. 3, 1-(3-{[4-(4-fluoro-1-benzofuran-7-yl)phenoxy]methyl}benzoyl)-L-proline]	110
O=C(O)[C@@H]1CCCN1C(=O)c1cccc(COc2ccc(-c3ccc(F)c4c3OCC4)cc2)c1 [compound of Ex. 10]	350
CN(CC(=O)O)C(=O)c1cccc(COc2ccc(-c3cc(F)cc4c3OCC4)cc2)c1 [compound of Ex. 2, N-(3-{[4-(5-fluoro-2,3-dihydro-1-benzofuran-7-yl)phenoxy]methyl}benzoyl)-N-methylglycine]	590

Same assay, conditions: concentration inducing relative activity of 50% (100% = Ex. 1 of WO/2011/058154 at 10 μM); incubation at 37° C. for 20 minutes (Examples 11 to 75)

SMILES	EC50 [nM]
O=C(O)[C@@H]1CCCN1C(=O)c1cccc(COc2ccc(-c3cccc4c3CCC4)cc2)c1 [compound of Ex. 24, 1-(3-{[4-(2,3-dihydro-1H-inden-4-yl)phenoxy]methyl}benzoyl)-L-proline]	670
COCc1cc2c(F)c(F)cc(-c3ccc(OCc4cccc(C(=O)N5CCC[C@H]5C(=O)O)c4)cc3)c2o1 [compound of Ex. 73, 1-[3-({4-[4,5-difluoro-2-(methoxymethyl)-1-benzofuran-7-yl]phenoxy}methyl)benzoyl]-L-proline]	65
O=C(O)[C@@H]1C=CCN1C(=O)c1cccc(COc2ccc(-c3cc(F)c(F)c4ccoc34)cc2)c1 [compound of Ex. 64, (2S)-1-(3-{[4-(4,5-difluoro-1-benzofuran-7-yl)phenoxy]methyl}benzoyl)-2,5-dihydro-1H-pyrrole-2-carboxylic acid]	140
Cc1coc2c(-c3ccc(OCc4cccc(C(=O)N5CCC[C@H]5C(=O)O)c4)cc3)cc(F)c(F)c12 [compound of Ex. 21, 1-(3-{[4-(4,5-difluoro-3-methyl-1-benzofuran-7-yl)phenoxy]methyl}benzoyl)-L-proline]	54
N#Cc1cc2c(F)c(F)cc(-c3ccc(OCc4cccc(C(=O)N5CCC[C@H]5C(=O)O)c4)cc3)c2o1 [compound of Ex. 54]	260
C[C@@H](C(=O)O)N(C)C(=O)c1cccc(COc2ccc(-c3cc(F)c(F)c4ccoc34)cc2)c1 [compound of Ex. 63, N-(3-{[4-(4,5-difluoro-1-benzofuran-7-yl)phenoxy]methyl}benzoyl)-N-methyl-L-alanine]	220
N#CCc1coc2c(-c3ccc(OCc4cccc(C(=O)N5CCC[C@H]5C(=O)O)c4)cc3)cc(F)c(F)c12 [compound of Ex. 46, 1-[3-({4-[3-(cyanomethyl)-4,5-difluoro-1-benzofuran-7-yl]phenoxy}methyl)benzoyl]-L-proline]	150
O=C(O)[C@@H]1CCCN1C(=O)c1cccc(COc2ccc(-c3cc(F)c4occc4c3F)cc2)c1 [compound of Ex. 17, 1-(3-{[4-(4,7-difluoro-1-benzofuran-5-yl)phenoxy]methyl}benzoyl)-L-proline]	270
C#CCOc1cc(F)c(F)cc1-c1ccc(OCc2cccc(C(=O)N3CCC[C@H]3C(=O)O)c2)cc1 [compound of Ex. 34, 1-[3-({[4′,5′-difluoro-2′-(prop-2-yn-1-yloxy)biphenyl-4-yl]oxy}methyl)benzoyl]-L-proline]	17
O=C(O)[C@@H]1CCCN1C(=O)c1cccc(COc2ccc(-c3cc4ccoc4c(F)c3F)cc2)c1 [compound of Ex. 16, 1-(3-{[4-(6,7-difluoro-1-benzofuran-5-yl)phenoxy]methyl}benzoyl)-L-proline]	35
COCc1coc2c(-c3ccc(OCc4cccc(C(=O)N5CCC[C@H]5C(=O)O)c4)cc3)cc(F)c(F)c12 [compound of Ex. 45, 1-[3-({4-[4,5-difluoro-3-(methoxymethyl)-1-benzofuran-7-yl]phenoxy}methyl)benzoyl]-L-proline]	800
Cc1cc2c(-c3ccc(OCc4cccc(C(=O)N5CCC[C@H]5C(=O)O)c4)cc3)cc(F)c(F)c2[nH]1 [compound of Ex. 41, 1-(3-{[4-(6,7-difluoro-2-methyl-1H-indol-4-yl)phenoxy]methyl}benzoyl)-L-proline]	100
Cc1cc2c(F)c(F)cc(-c3ccc(OCc4cccc(C(=O)N5CCC[C@H]5C(=O)O)c4)cc3)c2s1 [compound of Ex. 62, 1-(3-{[4-(4,5-difluoro-2-methyl-1-benzothien-7-yl)phenoxy]methyl}benzoyl)-L-proline]	270
Cc1csc2c(-c3ccc(OCc4cccc(C(=O)N5CCC[C@H]5C(=O)O)c4)cc3)cc(F)c(F)c12 [compound of Ex. 55, 1-(3-{[4-(4,5-difluoro-3-methyl-1-benzothien-7-yl)phenoxy]methyl}benzoyl)-L-proline]	85
O=C(O)[C@@H]1CCCN1C(=O)c1cccc(COc2ccc(-c3cccc4ccsc34)cc2)c1 [compound of Ex. 28, 1-(3-{[4-(1-benzothien-7-yl)phenoxy]methyl}benzoyl)-L-proline]	890
CSc1cc(F)c(F)cc1-c1ccc(OCc2cccc(C(=O)N3CCC[C@H]3C(=O)O)c2)cc1 [compound of Ex. 38, 1-[3-({[4′,5′-difluoro-2′-(methylthio)biphenyl-4-yl]oxy}methyl)benzoyl]-L-proline]	29
O=C(O)[C@@H]1CSCN1C(=O)c1cccc(COc2ccc(-c3cc(F)c(F)c4ccoc34)cc2)c1 [compound of Ex. 68, (4R)-3-(3-{[4-(4,5-difluoro-1-benzofuran-7-yl)phenoxy]methyl}benzoyl)-1,3-thiazolidine-4-carboxylic acid]	340
O=C(O)[C@@H]1CCCN1C(=O)c1cccc(COc2ccc(-c3cc(F)c(F)c4ccsc34)cc2)c1 [compound of Ex. 39, 1-(3-{[4-(4,5-difluoro-1-benzothien-7-yl)phenoxy]methyl}benzoyl)-L-proline]	42
O=C(O)[C@@H]1CCCN1C(=O)c1cccc(COc2ccc(-c3ccc(F)c4[nH]ccc34)cc2)c1 [compound of Ex. 29, 1-(3-{[4-(7-fluoro-1H-indol-4-yl)phenoxy]methyl}benzoyl)-L-proline]	230
O=C(O)[C@@H]1CCCN1C(=O)c1cccc(COc2ccc(-c3cc(F)c(F)c4occc34)cc2)c1 [compound of Ex. 30, 1-(3-{[4-(6,7-difluoro-1-benzofuran-4-yl)phenoxy]methyl}benzoyl)-L-proline]	140
C=CCOc1cc(F)c(F)cc1-c1ccc(OCc2cccc(C(=O)N3CCC[C@H]3C(=O)O)c2)cc1 [compound of Ex. 36, 1-[3-({[2′-(allyloxy)-4′,5′-difluorobiphenyl-4-yl]oxy}methyl)benzoyl]-L-proline]	110
O=C(O)[C@@H]1CCCN1C(=O)c1cccc(COc2ccc(-c3ccc(F)c4c3OCO4)cc2)c1 [compound of Ex. 13, 1-(3-{[4-(7-fluoro-1,3-benzodioxol-4-yl)phenoxy]methyl}benzoyl)-L-proline]	270
O=C(O)[C@@H]1CCCN1C(=O)c1cccc(COc2ccc(-c3cc(F)c(F)c4[nH]ccc34)cc2)c1 [compound of Ex. 33, 1-(3-{[4-(6,7-difluoro-1H-indol-4-yl)phenoxy]methyl}benzoyl)-L-proline]	34

— US9290487B2, “Pharmaceutical composition for treating diabetes” (Ajinomoto Co., Inc., priority 2011, dated 2016)
